Reference: patent US10189837B2, “Crystalline (8S,9R)-5-fluoro-8-(4-fluorophenyl)-9-(1-methyl-1H-1,2,4-triazol-5-yl)-8,9-dihydro-2H-pyrido[4,3,2-de]phthalazin-3(7H)-one tosylate salt” (Medivation Technologies, LLC, priority 2010, dated 2019)
One block for each compound: values may come before it.

Experiments:
Assay type in all cases: physicochemical
[1] = Thermogravimetric analysis (TGA); conditions: for Weight Change: ramp 10.00 °C/min to 300.00 °C; for % Change in weight: ramp 10.00 °C/min to 400.00 °C
Experimental: Unless otherwise noted, TGA thermograms were acquired using a TA Instruments Q500 Thermogravimetric Analyzer (New Castle, Del., USA). Samples were weighed out into the pan. Except as noted below, the temperature was ramped from 25.00° C. to 400.00° C. at 10.00° C./minute.
A TGA thermogram for tosylate salt prepared using the steps described in Variation 2 was acquired using a Mettler Toledo Thermogravimetric Analyzer/Differential Scanning Calorimeter 1. The temperature was ramped from 25° C. to 400° C. at 10° C./minute.

[2] = Dynamic vapor sorption (DVS) isotherm
Experimental: 1 model from Surface Measurement Systems Ltd. (Alperton, Middlesex, UK). A moisture adsorption desorption isotherm was performed as outlined below. The standard isotherm run is a cycle starting at RH 0% to RH 95% at 5% intervals, followed by drying to RH 0% in 5% RH intervals.

[3] = Thermogravimetric analysis (TGA); conditions: ramp 10.00 °C/min to 300.00 °C
[4] = TGA, start about 25 °C, stop 120 °C, tosylate salt
[5] = TGA, start about 25 °C, stop 250 °C, tosylate salt

SMILES: Cc1ccc(S(=O)(=O)O)cc1.Cn1ncnc1[C@H]1c2n[nH]c(=O)c3cc(F)cc(c23)N[C@@H]1c1ccc(F)cc1 [(8S,9R)-5-fluoro-8-(4-fluorophenyl)-9-(1-methyl-1H-1,2,4-triazol-5-yl)-8,9-dihydro-2H-pyrido[4,3,2-de]phthalazin-3(7H)-one mono-tosylate salt]
- stability to heat (TGA trace) ([1]; 25 °C to 400 °C at 10 °C/minute, prior to the onset of decomposition at the melting point): stable to heat
- hygroscopicity (DVS) ([2]; 25 °C, humidity 0% to 95%): not hygroscopic
- weight gain (DVS) ([2]; 25 °C, humidity increased from 0% to 95%): less than 1%
- Change in Mass (%) Desorption ([2]; Target % P/Po 0.0): −0.0015%
- Change in Mass (%) Desorption ([2]; Target % P/Po 5.0): 0.0203%
- Change in Mass (%) Desorption ([2]; Target % P/Po 10.0): 0.0326%
- Change in Mass (%) Desorption ([2]; Target % P/Po 15.0): 0.0421%
- Change in Mass (%) Desorption ([2]; Target % P/Po 20.0): 0.0513%
- Change in Mass (%) Desorption ([2]; Target % P/Po 25.0): 0.0649%
- Change in Mass (%) Desorption ([2]; Target % P/Po 30.0): 0.0791%
- Change in Mass (%) Desorption ([2]; Target % P/Po 35.0): 0.0947%
- Change in Mass (%) Desorption ([2]; Target % P/Po 40.0): 0.1084%
- Change in Mass (%) Desorption ([2]; Target % P/Po 45.0): 0.1266%
- Change in Mass (%) Desorption ([2]; Target % P/Po 50.0): 0.1456%
- Change in Mass (%) Desorption ([2]; Target % P/Po 55.0): 0.1668%
- Change in Mass (%) Desorption ([2]; Target % P/Po 60.0): 0.1895%
- Change in Mass (%) Desorption ([2]; Target % P/Po 65.0): 0.2192%
- Change in Mass (%) Desorption ([2]; Target % P/Po 70.0): 0.2535%
- Change in Mass (%) Desorption ([2]; Target % P/Po 75.0): 0.2919%
- Change in Mass (%) Desorption ([2]; Target % P/Po 80.0): 0.3402%
- Change in Mass (%) Desorption ([2]; Target % P/Po 85.0): 0.4113%
- Change in Mass (%) Desorption ([2]; Target % P/Po 90.0): 0.5230%
- Change in Mass (%) Desorption ([2]; Target % P/Po 95.0): 0.7473%

SMILES: Cn1ncnc1[C@H]1c2n[nH]c(=O)c3cc(F)cc(c23)N[C@@H]1c1ccc(F)cc1 [compound 1, (8S,9R)-5-fluoro-8-(4-fluorophenyl)-9-(1-methyl-1H-1,2,4-triazol-5-yl)-8,9-dihydro-2H-pyrido[4,3,2-de]phthalazin-3(7H)-one]
- Weight Change ([3]; TGA at 120 °C): 1.45%
- Weight Change ([3]; TGA at 238 °C): 9.214%
- Weight Change ([3]; TGA at […]): 4.068%
- Weight Change ([1]; TGA at 225 °C): 9.125%
- Weight Change ([1]; TGA at 252 °C): 9.265%

SMILES: Cn1ncnc1[C@H]1c2n[nH]c(=O)c3cc(F)cc(c23)N[C@@H]1c1ccc(F)cc1 [compound 3, (8S,9R)-5-fluoro-8-(4-fluorophenyl)-9-(1-methyl-1H-1,2,4-triazol-5-yl)-8,9-dihydro-2H-pyrido[4,3,2-de]phthalazin-3(7H)-one]
- Weight Change ([3]; TGA at 120 °C): 2.33%
- Weight Change ([3]; TGA at 178 °C): 2.829%
- Weight Change ([1]; TGA at 152 °C): 2.584%
- Weight Change ([1]; TGA at 205 °C): 3.42%
- Weight Change ([1]; TGA at 250 °C): 5.193%

SMILES: Cc1ccc(S(=O)(=O)O)cc1.Cn1ncnc1[C@H]1c2n[nH]c(=O)c3cc(F)cc(c23)N[C@@H]1c1ccc(F)cc1 [compound 5, (8S,9R)-5-fluoro-8-(4-fluorophenyl)-9-(1-methyl-1H-1,2,4-triazol-5-yl)-8,9-dihydro-2H-pyrido[4,3,2-de]phthalazin-3(7H)-one tosylate salt]
- % Change in weight ([1]; TGA, start 25.13 °C, stop 340.46 °C): 43.54%
- % Change in weight [1, 4]: 0.1231%
- % Change in weight [1, 5]: 0.2894%

SMILES: Cc1ccc(S(=O)(=O)O)cc1.Cn1ncnc1[C@H]1c2n[nH]c(=O)c3cc(F)cc(c23)N[C@@H]1c1ccc(F)cc1 [compound 6, (8S,9R)-5-fluoro-8-(4-fluorophenyl)-9-(1-methyl-1H-1,2,4-triazol-5-yl)-8,9-dihydro-2H-pyrido[4,3,2-de]phthalazin-3(7H)-one tosylate salt]
- % Change in weight ([1]; TGA, start 25.2 °C, stop 338.56 °C): 24.56%
- % Change in weight [1, 4]: 0.0388%
- % Change in weight [1, 5]: 0.5425%

SMILES: Cc1ccc(S(=O)(=O)O)cc1.Cn1ncnc1[C@H]1c2n[nH]c(=O)c3cc(F)cc(c23)N[C@@H]1c1ccc(F)cc1 [compound 7, (8S,9R)-5-fluoro-8-(4-fluorophenyl)-9-(1-methyl-1H-1,2,4-triazol-5-yl)-8,9-dihydro-2H-pyrido[4,3,2-de]phthalazin-3(7H)-one tosylate salt]
- % Change in weight ([1]; TGA, start 25.5 °C, stop 334 °C): 26.55%
- % Change in weight [1, 4]: 0.2109%
- % Change in weight [1, 5]: 2.552%

SMILES: Cc1ccc(S(=O)(=O)O)cc1.Cn1ncnc1[C@H]1c2n[nH]c(=O)c3cc(F)cc(c23)N[C@@H]1c1ccc(F)cc1 [compound 8, (8S,9R)-5-fluoro-8-(4-fluorophenyl)-9-(1-methyl-1H-1,2,4-triazol-5-yl)-8,9-dihydro-2H-pyrido[4,3,2-de]phthalazin-3(7H)-one tosylate salt]
- % Change in weight ([1]; TGA, start 24.9 °C, stop 274.33 °C): 2.071%
- % Change in weight ([1]; TGA, start 24.9 °C, stop 320 °C): 19.97%
- % Change in weight ([1]; TGA, start 24.9 °C, stop 335 °C): 34.56%
- % Change in weight ([1]; TGA, start 24.9 °C, stop 363.03 °C): 50.39%
- % Change in weight ([1]; TGA, start 24.9 °C, stop 394.92 °C): 54.39%
- % Change in weight [1, 4]: 0.06696%
- weight gain (DVA) ([2]; from 0%-95% RH): 0.1574%

The remaining lines, values ahead:

- weight loss ([1]; TGA at 134.8 °C): 5.72%
SMILES: Cn1ncnc1[C@H]1c2n[nH]c(=O)c3cc(F)cc(c23)N[C@@H]1c1ccc(F)cc1 [compound 11, (8S,9R)-5-fluoro-8-(4-fluorophenyl)-9-(1-methyl-1H-1,2,4-triazol-5-yl)-8,9-dihydro-2H-pyrido[4,3,2-de]phthalazin-3(7H)-one]

- weight loss ([1]; TGA at 139.06 °C): 7.034%
SMILES: Cn1ncnc1[C@H]1c2n[nH]c(=O)c3cc(F)cc(c23)N[C@@H]1c1ccc(F)cc1 [compound 12, (8S,9R)-5-fluoro-8-(4-fluorophenyl)-9-(1-methyl-1H-1,2,4-triazol-5-yl)-8,9-dihydro-2H-pyrido[4,3,2-de]phthalazin-3(7H)-one]

- Weight Change ([3]; TGA at 120 °C): 1.054%
- Weight Change ([3]; TGA at 174 °C): 5.977%
- Weight Change ([3]; TGA at 185 °C): 7.82%
- Weight Change ([3]; TGA at 238 °C): 8.874%
- Weight Change ([1]; TGA at 161 °C): 4.256%
SMILES: Cn1ncnc1[C@H]1c2n[nH]c(=O)c3cc(F)cc(c23)N[C@@H]1c1ccc(F)cc1 [compound 19, (8S,9R)-5-fluoro-8-(4-fluorophenyl)-9-(1-methyl-1H-1,2,4-triazol-5-yl)-8,9-dihydro-2H-pyrido[4,3,2-de]phthalazin-3(7H)-one]

- Weight Change ([3]; TGA at 120 °C): 1.926%
- Weight Change ([3]; TGA at 189.67 °C): 3.234%
- Weight Change ([3]; TGA at 256.48 °C): 3.448%
- Weight Change ([1]; TGA at 174.03 °C): 3.167%
SMILES: Cn1ncnc1[C@H]1c2n[nH]c(=O)c3cc(F)cc(c23)N[C@@H]1c1ccc(F)cc1 [compound 20, (8S,9R)-5-fluoro-8-(4-fluorophenyl)-9-(1-methyl-1H-1,2,4-triazol-5-yl)-8,9-dihydro-2H-pyrido[4,3,2-de]phthalazin-3(7H)-one]

- weight loss ([1]; TGA at 142.46 °C): 3.7%
- weight loss ([1]; TGA at 256.48 °C): 4.259%
SMILES: Cn1ncnc1[C@H]1c2n[nH]c(=O)c3cc(F)cc(c23)N[C@@H]1c1ccc(F)cc1 [compound 21, (8S,9R)-5-fluoro-8-(4-fluorophenyl)-9-(1-methyl-1H-1,2,4-triazol-5-yl)-8,9-dihydro-2H-pyrido[4,3,2-de]phthalazin-3(7H)-one]

- weight loss ([1]; TGA at 223.8 °C): 17.47%
- weight loss ([1]; TGA, ambient to 120 °C): 0.9388%
SMILES: Cn1ncnc1[C@H]1c2n[nH]c(=O)c3cc(F)cc(c23)N[C@@H]1c1ccc(F)cc1 [compound 24, (8S,9R)-5-fluoro-8-(4-fluorophenyl)-9-(1-methyl-1H-1,2,4-triazol-5-yl)-8,9-dihydro-2H-pyrido[4,3,2-de]phthalazin-3(7H)-one]
